# Experimental data as given in ChEMBL document CHEMBL1201862, “PubChem BioAssay data set” (2004).
# Calls of active or inactive are those of the source.
# Legend:
# [1] = molecular target: T1, Sentrin-specific protease 8 (Homo sapiens, UniProt Q96LD8); assay: inhibition of sentrin protease 8 – biochemical, luminescence, set 2, SAR follow-up (AID 588601); assay type: functional
# T1 sequence (Q96LD8 whole entry): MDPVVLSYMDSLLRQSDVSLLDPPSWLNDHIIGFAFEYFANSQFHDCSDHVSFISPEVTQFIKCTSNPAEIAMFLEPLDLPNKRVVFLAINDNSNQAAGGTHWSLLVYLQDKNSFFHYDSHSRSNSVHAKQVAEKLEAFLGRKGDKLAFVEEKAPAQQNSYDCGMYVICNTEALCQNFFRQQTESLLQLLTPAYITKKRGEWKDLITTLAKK
# [2] = molecular target: T2, Sentrin-specific protease 6 (Homo sapiens, UniProt Q9GZR1); assay: inhibition of human SENP6 catalytic domain – biochemical, luminescence, set 2, SAR follow-up (AID 588598); assay type: functional
# T2 sequence (Q9GZR1 whole entry): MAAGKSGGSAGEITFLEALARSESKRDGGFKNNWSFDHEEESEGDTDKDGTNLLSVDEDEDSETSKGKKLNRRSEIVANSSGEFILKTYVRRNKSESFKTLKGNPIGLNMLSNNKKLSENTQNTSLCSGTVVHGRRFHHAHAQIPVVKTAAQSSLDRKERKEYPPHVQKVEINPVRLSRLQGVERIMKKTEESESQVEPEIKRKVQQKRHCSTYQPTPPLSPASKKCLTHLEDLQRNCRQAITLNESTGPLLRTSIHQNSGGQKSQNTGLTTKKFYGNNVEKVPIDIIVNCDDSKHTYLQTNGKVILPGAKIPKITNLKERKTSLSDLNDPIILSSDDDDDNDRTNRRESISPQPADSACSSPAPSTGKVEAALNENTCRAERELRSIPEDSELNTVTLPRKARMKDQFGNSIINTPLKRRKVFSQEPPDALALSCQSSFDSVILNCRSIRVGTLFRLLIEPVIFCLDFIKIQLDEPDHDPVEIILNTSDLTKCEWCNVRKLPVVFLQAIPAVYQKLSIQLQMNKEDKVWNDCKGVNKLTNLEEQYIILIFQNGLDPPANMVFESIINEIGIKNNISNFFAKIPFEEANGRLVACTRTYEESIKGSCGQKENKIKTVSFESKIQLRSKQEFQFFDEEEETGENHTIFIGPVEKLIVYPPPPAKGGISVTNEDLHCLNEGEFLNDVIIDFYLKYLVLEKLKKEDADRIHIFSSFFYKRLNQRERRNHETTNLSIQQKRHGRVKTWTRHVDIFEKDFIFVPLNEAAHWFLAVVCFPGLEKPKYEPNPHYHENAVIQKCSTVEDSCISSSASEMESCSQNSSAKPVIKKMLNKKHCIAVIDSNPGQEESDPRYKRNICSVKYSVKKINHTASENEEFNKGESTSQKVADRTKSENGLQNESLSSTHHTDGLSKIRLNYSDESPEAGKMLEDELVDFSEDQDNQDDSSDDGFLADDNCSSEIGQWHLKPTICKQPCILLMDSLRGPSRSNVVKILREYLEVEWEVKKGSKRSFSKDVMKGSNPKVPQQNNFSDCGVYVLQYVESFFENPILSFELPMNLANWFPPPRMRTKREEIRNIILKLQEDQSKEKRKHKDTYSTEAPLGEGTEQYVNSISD
# Caspase-3 = molecular target: T3, Caspase-3 (Homo sapiens, UniProt P42574); assay: inhibition of recombinant caspase-3 activity – biochemical, luminescence, set 2, selectivity assay for SENP protease inhibitor project, SAR follow-up (AID 588599); assay type: functional
# T3 sequence (P42574 whole entry): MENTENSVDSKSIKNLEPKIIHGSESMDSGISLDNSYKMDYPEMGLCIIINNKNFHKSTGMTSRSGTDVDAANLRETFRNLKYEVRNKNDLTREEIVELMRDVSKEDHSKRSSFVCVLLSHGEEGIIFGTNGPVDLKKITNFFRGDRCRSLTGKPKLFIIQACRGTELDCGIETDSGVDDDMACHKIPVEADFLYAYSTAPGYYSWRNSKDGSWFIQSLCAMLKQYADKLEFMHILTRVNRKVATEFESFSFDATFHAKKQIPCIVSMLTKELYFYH
# [3] = molecular target: T4, Sentrin-specific protease 7 (Homo sapiens, UniProt Q9BQF6); assay: inhibition of human SENP7 cleavage activity – biochemical, luminescence, set 2, SAR follow-up (AID 588600); assay type: functional
# T4 sequence (Q9BQF6 whole entry): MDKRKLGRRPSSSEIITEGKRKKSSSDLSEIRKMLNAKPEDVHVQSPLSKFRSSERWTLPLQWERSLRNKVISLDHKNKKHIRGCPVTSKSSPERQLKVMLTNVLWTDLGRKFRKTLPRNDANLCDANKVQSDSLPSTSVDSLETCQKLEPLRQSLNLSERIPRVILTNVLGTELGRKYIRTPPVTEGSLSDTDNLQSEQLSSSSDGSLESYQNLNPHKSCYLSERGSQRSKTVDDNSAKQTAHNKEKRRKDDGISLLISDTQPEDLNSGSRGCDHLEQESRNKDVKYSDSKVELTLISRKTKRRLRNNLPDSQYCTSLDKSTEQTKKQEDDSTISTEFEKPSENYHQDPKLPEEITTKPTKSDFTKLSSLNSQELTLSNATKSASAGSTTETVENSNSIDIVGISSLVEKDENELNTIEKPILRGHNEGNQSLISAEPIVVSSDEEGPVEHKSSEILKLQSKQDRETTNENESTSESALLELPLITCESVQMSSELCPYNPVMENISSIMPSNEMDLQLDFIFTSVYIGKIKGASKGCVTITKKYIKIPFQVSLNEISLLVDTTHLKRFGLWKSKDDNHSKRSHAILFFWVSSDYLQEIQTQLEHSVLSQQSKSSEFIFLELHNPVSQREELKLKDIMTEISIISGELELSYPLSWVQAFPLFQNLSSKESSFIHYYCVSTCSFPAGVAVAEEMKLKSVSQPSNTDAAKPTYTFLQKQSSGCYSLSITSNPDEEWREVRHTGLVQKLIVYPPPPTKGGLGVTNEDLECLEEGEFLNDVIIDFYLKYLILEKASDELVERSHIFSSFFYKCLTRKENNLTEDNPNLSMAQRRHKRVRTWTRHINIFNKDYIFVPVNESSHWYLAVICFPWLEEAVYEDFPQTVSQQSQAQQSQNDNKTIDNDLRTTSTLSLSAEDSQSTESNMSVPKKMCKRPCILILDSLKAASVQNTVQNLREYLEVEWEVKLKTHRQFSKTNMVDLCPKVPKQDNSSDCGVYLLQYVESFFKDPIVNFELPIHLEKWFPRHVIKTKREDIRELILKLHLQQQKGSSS
# [4] = decrease of insulin promoter-GFP reporter – imaging, high-content screening, mouse beta cells (AID 1628); assay type: functional; details: MIN6
# [5] = molecular target: Luciferin 4-monooxygenase (Photuris pensylvanica, UniProt Q27757); assay: inhibition of Cell Titer Glo luciferase signal – biochemical, luminescence, cherry-picks, counter-screen for HSF-1 reporter inhibitor project, dose response (AID 588847)
# [6] = alpha-synuclein stem-loop luciferase translation blockers – H4 neuroglioma cells, luminescence, confirmation (AID 1988); assay type: functional, cell-based
# [7] = luciferase reporter signal suppression in cells – H4 neuroglioma cells, luminescence, dose response (AID 1990); assay type: functional, cell-based
# [8] = Luminescence Cell-Based Dose Response HTS to Identify Inhibitors of 5'UTR Stem-Loop Driven Prion Protein mRNA Translation in H4 Neuroglioblastoma Cells. [Related pubchem assays: 1827 (Project Summary), 1813 (Primary HTS)]; assay type: functional
# [9] = MIN6 cell viability loss – mouse insulinoma, cytotoxicity control, dose response (AID 2122); assay type: functional;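 further: confirmatory high-throughput counterscreen run to flag cytotoxic compounds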
# Hexokinase-1 = molecular target: T5, Hexokinase-1 (Homo sapiens, UniProt P19367); assay: SAR analysis of small molecule inhibitors of hexokinase domain containing I (HKDC1) in the hexokinase 1 selectivity assay. [Related pubchem assays (depositor defined):AID493160, AID493190]; assay type: functional
# T5 sequence (P19367 whole entry): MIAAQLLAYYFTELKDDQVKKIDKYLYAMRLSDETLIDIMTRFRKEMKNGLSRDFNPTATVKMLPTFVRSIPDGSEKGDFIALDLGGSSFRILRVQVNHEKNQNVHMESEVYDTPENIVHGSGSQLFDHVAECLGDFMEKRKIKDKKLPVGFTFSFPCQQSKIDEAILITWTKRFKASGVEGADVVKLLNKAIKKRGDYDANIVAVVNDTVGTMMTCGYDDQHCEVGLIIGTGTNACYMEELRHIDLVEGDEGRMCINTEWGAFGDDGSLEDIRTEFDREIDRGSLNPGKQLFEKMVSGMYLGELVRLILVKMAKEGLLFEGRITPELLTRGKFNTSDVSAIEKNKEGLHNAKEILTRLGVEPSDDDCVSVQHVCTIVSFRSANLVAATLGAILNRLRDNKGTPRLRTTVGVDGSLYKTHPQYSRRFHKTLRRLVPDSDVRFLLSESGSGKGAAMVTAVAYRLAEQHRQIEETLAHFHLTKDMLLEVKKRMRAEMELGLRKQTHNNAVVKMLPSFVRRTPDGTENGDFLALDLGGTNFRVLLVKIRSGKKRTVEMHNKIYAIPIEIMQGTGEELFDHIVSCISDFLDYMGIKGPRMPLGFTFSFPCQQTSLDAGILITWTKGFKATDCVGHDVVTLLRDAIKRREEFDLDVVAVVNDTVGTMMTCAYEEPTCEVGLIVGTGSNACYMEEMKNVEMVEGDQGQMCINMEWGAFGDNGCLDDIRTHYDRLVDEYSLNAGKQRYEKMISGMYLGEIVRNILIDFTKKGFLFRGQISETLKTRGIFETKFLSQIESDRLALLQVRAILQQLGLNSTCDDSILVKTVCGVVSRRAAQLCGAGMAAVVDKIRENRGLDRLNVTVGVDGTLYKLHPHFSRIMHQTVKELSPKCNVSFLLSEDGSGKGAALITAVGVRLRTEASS
# Hexokinase HKDC1 = molecular target: T6, Hexokinase HKDC1 (Homo sapiens, UniProt Q2TB90); assay: SAR analysis of small molecule inhibitors of hexokinase domain containing I (HKDC1). [Related pubchem assays (depositor defined):AID493160, AID493190]; assay type: functional
# T6 sequence (Q2TB90 whole entry): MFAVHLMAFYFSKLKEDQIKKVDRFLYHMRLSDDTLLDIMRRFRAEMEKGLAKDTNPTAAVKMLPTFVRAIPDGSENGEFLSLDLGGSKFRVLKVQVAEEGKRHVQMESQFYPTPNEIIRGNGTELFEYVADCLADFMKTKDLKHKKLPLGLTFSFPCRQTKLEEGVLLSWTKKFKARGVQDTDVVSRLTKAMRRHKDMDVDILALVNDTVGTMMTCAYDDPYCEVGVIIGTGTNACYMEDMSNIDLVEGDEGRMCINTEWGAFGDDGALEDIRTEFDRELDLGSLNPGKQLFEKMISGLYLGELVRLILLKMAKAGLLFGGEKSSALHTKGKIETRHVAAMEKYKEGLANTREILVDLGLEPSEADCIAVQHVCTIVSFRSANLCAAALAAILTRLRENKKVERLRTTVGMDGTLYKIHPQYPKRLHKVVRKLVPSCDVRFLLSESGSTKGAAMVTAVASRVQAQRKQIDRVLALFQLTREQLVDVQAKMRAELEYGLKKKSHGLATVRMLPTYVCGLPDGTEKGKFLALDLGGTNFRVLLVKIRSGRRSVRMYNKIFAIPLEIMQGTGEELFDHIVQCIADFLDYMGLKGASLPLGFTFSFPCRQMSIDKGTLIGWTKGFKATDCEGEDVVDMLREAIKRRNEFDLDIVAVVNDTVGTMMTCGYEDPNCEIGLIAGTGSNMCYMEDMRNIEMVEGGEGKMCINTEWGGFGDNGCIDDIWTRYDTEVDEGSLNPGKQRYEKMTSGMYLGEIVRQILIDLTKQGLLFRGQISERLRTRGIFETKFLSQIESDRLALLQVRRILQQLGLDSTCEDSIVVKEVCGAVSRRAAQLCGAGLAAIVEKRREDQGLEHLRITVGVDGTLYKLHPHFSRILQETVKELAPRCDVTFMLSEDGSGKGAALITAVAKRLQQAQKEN
# Phospholipase D2 = Phospholipase D2 (Homo sapiens, UniProt O14939); assay: cellular phospholipase D2 inhibition IC50 – cell-based, dose response (AID 602147); assay type: functional;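 further: cellular assay in HEK293 cells overexpressing GFP-tagged PLD2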
# Phospholipase D1 = Phospholipase D1 (Homo sapiens, UniProt Q13393); assay: cellular phospholipase D1 inhibition IC50 – cell-based, dose response (AID 602151); assay type: functional;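 further: cellular PLD1 assay in Calu-1 cells stimulated with PMA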
# INS1 [10] = assay: INS-1E mitochondrial potential loss inhibitors – cell-based, JC-1 fluorescence, dry powder, set 2, dose response (AID 488867); assay type: functional; details: Rattus norvegicus
# INS1 [11] = assay: beta-cell survival under cytokine stress – INS-1E, ATP luminescence, dry powder, dose response (AID 488844); assay type: functional, cell-based; details: Rattus norvegicus
# INS1 [12] = assay: INS-1E mitochondrial potential rescue under cytokines – cell-based, JC-1 fluorescence ratio, dry powder, dose response (AID 488931); assay type: functional; details: Rattus norvegicus
# Phospholipase D2, sequence (O14939 whole entry): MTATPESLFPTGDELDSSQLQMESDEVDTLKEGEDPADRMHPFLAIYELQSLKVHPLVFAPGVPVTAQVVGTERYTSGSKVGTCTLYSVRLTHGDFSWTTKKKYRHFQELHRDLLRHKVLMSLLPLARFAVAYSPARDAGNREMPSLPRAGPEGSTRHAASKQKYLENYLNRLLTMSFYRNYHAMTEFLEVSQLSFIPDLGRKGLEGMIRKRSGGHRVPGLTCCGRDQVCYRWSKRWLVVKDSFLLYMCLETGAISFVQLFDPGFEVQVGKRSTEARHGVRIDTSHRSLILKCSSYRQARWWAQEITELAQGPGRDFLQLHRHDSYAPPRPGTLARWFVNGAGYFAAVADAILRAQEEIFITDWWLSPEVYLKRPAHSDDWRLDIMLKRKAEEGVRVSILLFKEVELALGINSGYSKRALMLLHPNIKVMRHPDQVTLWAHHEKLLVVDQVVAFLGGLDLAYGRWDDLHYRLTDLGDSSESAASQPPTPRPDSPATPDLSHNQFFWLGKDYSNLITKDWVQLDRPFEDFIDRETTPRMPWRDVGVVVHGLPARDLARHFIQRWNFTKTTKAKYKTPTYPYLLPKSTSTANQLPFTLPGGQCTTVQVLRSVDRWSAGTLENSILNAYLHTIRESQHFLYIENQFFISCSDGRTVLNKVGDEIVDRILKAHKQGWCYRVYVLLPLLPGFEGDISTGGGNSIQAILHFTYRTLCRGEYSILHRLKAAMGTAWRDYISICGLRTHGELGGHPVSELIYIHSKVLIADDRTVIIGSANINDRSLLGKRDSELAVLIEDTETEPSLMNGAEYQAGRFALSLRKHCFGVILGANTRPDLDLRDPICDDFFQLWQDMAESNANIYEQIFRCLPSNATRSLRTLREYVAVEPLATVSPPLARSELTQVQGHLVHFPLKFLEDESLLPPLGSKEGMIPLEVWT
# Phospholipase D1, sequence (Q13393 whole entry): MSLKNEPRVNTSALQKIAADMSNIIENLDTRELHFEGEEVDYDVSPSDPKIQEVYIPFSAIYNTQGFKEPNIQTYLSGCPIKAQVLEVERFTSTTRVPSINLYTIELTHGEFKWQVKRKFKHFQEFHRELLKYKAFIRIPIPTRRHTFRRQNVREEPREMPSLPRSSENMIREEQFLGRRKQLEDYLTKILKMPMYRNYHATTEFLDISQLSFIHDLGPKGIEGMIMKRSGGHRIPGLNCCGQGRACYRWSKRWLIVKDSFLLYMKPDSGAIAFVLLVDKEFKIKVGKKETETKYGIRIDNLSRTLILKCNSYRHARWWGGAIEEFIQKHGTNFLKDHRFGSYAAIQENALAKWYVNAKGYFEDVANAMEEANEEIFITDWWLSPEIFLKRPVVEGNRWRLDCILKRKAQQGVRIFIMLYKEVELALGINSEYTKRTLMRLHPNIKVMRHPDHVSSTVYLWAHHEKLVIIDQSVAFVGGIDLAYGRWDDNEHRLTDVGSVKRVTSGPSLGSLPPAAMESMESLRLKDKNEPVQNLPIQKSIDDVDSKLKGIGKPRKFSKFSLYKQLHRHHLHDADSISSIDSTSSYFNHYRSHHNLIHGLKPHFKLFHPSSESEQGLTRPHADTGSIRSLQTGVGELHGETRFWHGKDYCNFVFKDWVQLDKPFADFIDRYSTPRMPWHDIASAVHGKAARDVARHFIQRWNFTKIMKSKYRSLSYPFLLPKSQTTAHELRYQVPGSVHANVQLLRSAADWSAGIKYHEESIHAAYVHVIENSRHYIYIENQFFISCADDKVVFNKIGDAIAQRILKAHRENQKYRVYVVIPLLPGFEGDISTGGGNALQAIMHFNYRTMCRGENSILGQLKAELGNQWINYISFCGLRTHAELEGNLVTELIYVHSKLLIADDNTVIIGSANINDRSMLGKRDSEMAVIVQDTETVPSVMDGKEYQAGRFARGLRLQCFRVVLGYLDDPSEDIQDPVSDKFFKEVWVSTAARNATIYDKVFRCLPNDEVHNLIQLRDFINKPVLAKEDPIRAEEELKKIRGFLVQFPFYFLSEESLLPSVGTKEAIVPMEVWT
# Luciferin 4-monooxygenase, sequence (Q27757 whole entry): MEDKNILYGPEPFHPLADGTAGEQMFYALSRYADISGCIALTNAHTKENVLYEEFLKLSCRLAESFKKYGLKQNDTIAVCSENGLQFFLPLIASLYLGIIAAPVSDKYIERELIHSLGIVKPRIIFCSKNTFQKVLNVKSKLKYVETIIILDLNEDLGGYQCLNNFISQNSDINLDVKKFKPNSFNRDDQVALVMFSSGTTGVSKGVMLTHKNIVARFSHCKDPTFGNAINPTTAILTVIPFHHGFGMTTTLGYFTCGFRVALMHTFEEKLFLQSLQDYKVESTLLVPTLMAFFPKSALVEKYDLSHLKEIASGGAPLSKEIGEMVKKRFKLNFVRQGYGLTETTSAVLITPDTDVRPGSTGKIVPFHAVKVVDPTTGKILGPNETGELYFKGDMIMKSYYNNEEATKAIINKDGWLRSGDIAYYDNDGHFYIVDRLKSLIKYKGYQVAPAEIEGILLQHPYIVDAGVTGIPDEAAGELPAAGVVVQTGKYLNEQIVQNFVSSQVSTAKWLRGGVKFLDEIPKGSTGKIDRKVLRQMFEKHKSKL
smiles,measurement,setting,value
CS(=O)(=O)c1ccc2nc(NC(=O)c3ccc(OC(F)(F)F)cc3)sc2c1,IC50,[1],> 99 µM (inactive)
same,IC50,[2],> 99 µM (inactive)
same,IC50,Caspase-3,> 99 µM (inactive)
same,IC50,[3],> 99 µM (inactive)
C[C@@H]1C[C@H]2[C@@H]3CCC4=CC(=O)C=C[C@]4(C)[C@@]3(F)[C@@H](O)C[C@]2(C)[C@@]1(O)C(=O)CO [DEXAMETHASONE],IC50,[4],< 0.25 µM (active)
same,AC50,[5],> 52 µM (inactive)
same,EC50,[6],> 120 µM (not active)
same,EC50,[7],> 120 µM (not active)
same,EC50,[8],> 120 µM (not active)
same,IC50,[9],> 16 µM (inactive)
Nc1n[nH]c(SCC(=O)Nc2cc(S(=O)(=O)N3CCOCC3)ccc2Cl)n1,IC50,Hexokinase-1,> 80 µM (inactive)
same,IC50,Hexokinase HKDC1,> 80 µM (inactive)
C[C@@H](CN1CCC2(CC1)C(=O)NCN2c1ccc(F)c(F)c1)NC(=O)c1ccc2ccccc2c1,IC50,Phospholipase D2,0.3 µM (active)
same,IC50,Phospholipase D1,0.1 µM (active)
COc1ccc(S(=O)(=O)N(C)C[C@@H]2Oc3c(NC(=O)Nc4ccccc4)cccc3C(=O)N([C@H](C)CO)C[C@H]2C)cc1,AC50,INS1 [10],> 260 µM (inactive)
same,AC50,INS1 [11],22.8 µM (active)
same,AC50,INS1 [12],> 195 µM (inactive)
